Reference: patent US10124035B2, “DISC-1 pathway activators in the control of neurogenesis” (Massachusetts Institute of Technology, priority 2008, dated 2018)
Entries after “also recorded” stand apart in the source; their conditions may differ.

Experiments:
[1] = test system: DISC1 shRNA injected mice; assay: Open Field test (hyperlocomotion in response to novelty); type: in vivo, mouse; details: for hyperlocomotion/hyperactivity in novel open field: DISC1 shRNA injected mice, SB-216763 2 mg/kg i.p.
Protocol: (§1) Behavioral abnormalities in DISC1 knockdown mice. a. DISC1 knockdown in adult dentate gyms caused increased hyperactivity in the Open Field Test. b and c. DISC1 knockdown in adult dentate gyms caused depressive-like behavior in the Forced Swimming test and the Novelty Suppression Feeding experiment. b. Forced Swimming Test Mice were put in the beaker with water for 6 minutes and counted the last 4 minutes for the time of immobility. c. Novelty Suppression Feeding Test. Mice were restricted with food for 48 hours and tested for the motivation to eat food. Mice were tested the latency for first bite, the time they spent on food, and the time they ate during 5 minutes. d. […] Mice were injected and allowed to recover for 2 weeks, then treated with the GDK3beta inhibitor SB216763 at 2 mg/kg/day for two weeks, after that the behavioral test was performed.
Alterations in neurogenesis are implicated in the development of depression and other abnormal behaviors. To examine the behavioral consequences of disrupting the DICS1/GSK3β pathway, we silenced DISC1 expression in the adult dentate gyms and evaluated behavioral consequences. Four weeks after the injection of control or DISC1 shRNA-1 lentivirus, mice were treated with vehicle or SB-216763 (2 mg/kg i.p.) every other day for 10 days. […] DISC1 shRNA injected mice traveled a greater distance and spent more time moving in a novel open field than control mice (FIG. 17A). These behaviors were normalized by SB-216763 treatment. We further tested whether DISC1 loss-of-function had consequences on depression-like behavior in the forced swim test. […] Importantly, swimming velocity was unchanged. […] Thus, increased GSK3β activity caused by DISC1 loss-of-function is associated with schizophrenia- and depression-like behaviors.

[2] = test system: DISC1 shRNA infected mice; assay: Forced swim test; type: in vivo, mouse
Protocol: as §1
Alterations in neurogenesis are implicated in the development of depression and other abnormal behaviors. To examine the behavioral consequences of disrupting the DICS1/GSK3β pathway, we silenced DISC1 expression in the adult dentate gyms and evaluated behavioral consequences. Four weeks after the injection of control or DISC1 shRNA-1 lentivirus, mice were treated with vehicle or SB-216763 (2 mg/kg i.p.) every other day for 10 days. […]

[3] = test system: DISC1 knockdown AHP cells; assay: BrdU incorporation in DISC1 knockdown progenitor cells; type: cell-based; details: SB-216763 5 μM for 16 hours, 10 μM BrdU for 2 hours
Protocol: Primary neural stem cells from E14 brains were infected with control or DISC1 shRNA lentiviruses. 48 hours after to transduction, cells were treated with vehicle or SB-216763 (5 μM) for 16 hours and then pulsed with 10 μM BrdU for 2 hours. Shown is percentage of GFP and BrdU double positive cells to total GFP positive cells (n=3, p<0.05). b. […] 1.5 μg of vector or WT-DISC1 was cotransfected with 0.5 μg control or DISC1 shRNA-2, 0.1 μg TCF reporter, and 10 ng pRL-TK vector into 293T cells. 48 hours after transfection, Wnt3a conditional medium with vehicle, SB-216763, or AR-A104418 was added for another 16 hours.
If DISC1 functions to inhibit GSK3β activity, the negative effects of DISC1 silencing on proliferation should be alleviated by GSK3β loss-of-function. We examined the consequence of treating DISC1 knockdown AHP cells with SB-216763, a specific chemical inhibitor of GSK3β. […] These experiments further support a role of DISC1 in controlling cell proliferation via modulation of GSK3β.

[4] = test system: adult progenitor proliferation in dentate gyrus; assay: Adult progenitor proliferation in dentate gyrus (BrdU) after lentivirus injection; type: in vivo
Source text: Cell positioning and BrdU incorporation defects caused by DISC1 loss-of-function are rescued by human WT-DISC1 or SA-β-catenin. The percentage of GFP positive cells in the SVZ/VZ or CP is shown (n=5, **, p<0.01; ***, p<0.005). Scale bar=20 μm. b. The reduction in mitotic index caused by DISC1 knockdown in embryonic brains is rescued by human WT-DISC1 or SA-β-catenin. Arrows indicate GFP and pH3 double positive cells. Shown is the percentage of GFP and pH3 double positive cells in total GFP positive cells (n=4, *, p<0.05; ***, p<0.005). Scale bar=20 μm. c. Control or DISC1 shRNA-1 lentivirus was stereotactically injected into adult dentate gyms. After 4 weeks of recovery, mice received SB216763 (2 mg/kg) every other day for 2 weeks and BrdU (100 mg/kg) daily for 7 days. The GFP signal represents lentiviral infected cells in dentate gyms. Scale bar=50 μm. d. […] The percentage of GFP and BrdU double positive cells is shown (n=5, *, p<0.05; **, p<0.01; ***, p<0.005; ns, not significant). Scale bar=10 μm.
• Mice. Swiss Webster pregnant female mice were purchased from Taconic (Hudson, N.Y.). • Cell Culture. AHPs were kindly provided by Dr. Gage (Lie, D. C. et al. Wnt signaling to regulates adult hippocampal neurogenesis. Nature 437, 1370-5 (2005)) and cultured under conditions described previously (Palmer, T. D., Takahashi, J. & Gage, F. H. The adult rat hippocampus contains primordial neural stem cells. Mol Cell Neurosci 8, 389-404 (1997)). Primary neural progenitors were isolated from E14 mouse embryos and cultured as described previously (Sanada, K. & Tsai, L. H. G protein betagamma subunits and AGS3 control spindle orientation and asymmetric cell fate of cerebral cortical progenitors. Cell 122, 119-31 (2005)). N2a and 293T cells were cultured in DMEM medium containing 10% FBS, L-glutamine, and penicillin/streptomycin. Wnt3a expressing L cells and untransfected L cells were obtained from ATCC (Manassas, Va.). Wnt3a conditional medium was produced according to the ATCC protocol. To induce AHP differentiation, FGF2 was removed from the culture medium and 1 μM retinoic acid/1% FBS was added to the medium for 4 days. • Reagents. Recombinant Wnt3a protein was obtained from Chemicon (Rosemont, Ill.). FGF2 was obtained from PeproTech (Rocky Hill, N.J.). Recombinant GST-GSK3β was obtained from Active Motif (Carlsbad, Calif.). Recombinant GST-β-catenin and GST-axin were obtained from Millipore (Billerica, Mass.). The GSK313 inhibitor, SB-216763, AR-A104418 and His-GSK3β, were obtained from Sigma-Aldrich (Sigma-Aldrich, St. Louis, Mo.). L803-MTS was obtained from Calbiochem (San Diego, Calif.). GST-AKT1 was obtained from Cell Signaling (Beverly, Mass.). […]

[5] = lentivirus in adult dentate gyrus, compared to control mice

Compound | hyperlocomotion/hyperactivity in novel open field ([1]; 2 mg/kg) | hyperlocomotion/hyperactivity in novel open field ([1]; listed as SB216763, 2 mg/kg) | immobility in forced swim test ([2]; DISC1 shRNA infected mice, SB-216763 2 mg/kg i.p.) | cell proliferation by BrdU incorporation in DISC1 knockdown cells [3] | BrdU positive cells in dentate gyrus ([4]; DISC1 shRNA-1 infected mice, SB216763 2 mg/kg for 2 weeks, 2 mg/kg) | number of BrdU positive cells in dentate gyrus ([4]; mice infected with control virus, SB216763 2 mg/kg for 2 weeks) | locomotion in novel open field [1, 5] | immobility in forced swim test [2, 5] | active caspase 3 labeling in GFP positive cells in the dentate gyrus ([4]; lentivirus injected adult mice) | BrdU incorporation in adult dentate gyrus ([4]; lentivirus injected, compared to control shRNA cells)
Cn1cc(C2=C(c3ccc(Cl)cc3Cl)C(=O)NC2=O)c2ccccc21 [SB-216763] | normalized | can be rescued | suppressed | restored the cell proliferation impaired by DISC1 knockdown; also recorded: can rescue DISC-1 knockdown-induced proliferation defects | no longer exhibited a reduction in BrdU positive cells; also recorded: can be rescued | significantly increased the number of BrdU positive cells |  |  |  | 
DISC1 shRNA-1: shRNA targeting rat and mouse DISC1, SEQ ID NO:4, in pLentiLox 3.7 vector (GGCAAACACTGTGAAGTGC) |  |  |  |  |  |  | hyperlocomotion in response to novelty | greater immobility | no increase in active caspase 3 labeling | significant reduction in BrdU incorporation
